Laboratory results taken from ChEMBL document CHEMBL3352572, “Design, synthesis and antioxidant activity evaluation of novel β-elemene derivatives” (Bioorg Med Chem Lett, 2014).

Columns and labels:
[1] = tested on: HUVEC; test: Antioxidant activity in HUVEC assessed as suppression of ROS production by measuring fluorescent intensity index at 100 uM pre-incubated for 24 hrs before H2O2 stimulation for 2 hrs by DCF dye based fluorimetric assay; assay type: functional, cell-based; settings: Homo sapiens
[2] = tested on: HUVEC; test: Antioxidant activity in HUVEC assessed as suppression of ROS production by measuring fluorescent intensity index at 5 uM pre-incubated for 24 hrs before H2O2 stimulation for 2 hrs by DCF dye based fluorimetric assay; assay type: functional, Homo sapiens
[3] = Cytotoxicity against HUVEC assessed as cell survival at 0.5 to 50 uM after 24 hrs by MTT assay; assay type: cell-based; settings: human, HUVEC cells; read-out: Survival
[4] = tested on: HUVEC; test: Cytotoxicity against HUVEC assessed as cell death 1000 uM after 24 hrs by MTT assay; assay type: cell-based; settings: human
[5] = tested on: HUVEC; test: Antioxidant activity in HUVEC assessed as suppression of ROS production pre-incubated for 24 hrs before H2O2 stimulation for 2 hrs by DCF dye based fluorescence microscopy; assay type: functional, cell-based; settings: Homo sapiens
[6] = tested on: HUVEC; test: Cytoprotective activity in H2O2-treated HUVEC assessed as cell survival at 50 uM pre-incubated for 24 hrs before H2O2 stimulation for 2 hrs by MTT assay (reference value: 66.91%); assay type: functional; settings: Homo sapiens, read-out: Survival
[7] = tested on: HUVEC; test: Reduction in MDA level in H2O2-treated HUVEC at 0.5 to 50 uM pre-incubated for 24 hrs before H2O2 stimulation for 2 hrs; assay type: functional, cell-based; settings: Homo sapiens
[8] = tested on: HUVEC; test: Increase in SOD activity in H2O2-treated HUVEC at 0.5 to 50 uM pre-incubated for 24 hrs before H2O2 stimulation for 2 hrs; assay type: functional, cell-based; settings: Homo sapiens
[9] = tested on: HUVEC; test: Increase in nitric oxide secretion in H2O2-treated HUVEC at 0.5 to 50 uM pre-incubated for 24 hrs before H2O2 stimulation for 2 hrs; assay type: functional, cell-based; settings: Homo sapiens
[10] = tested on: HUVEC; test: Antioxidant activity in HUVEC assessed as suppression of ROS production at 0.5 uM pre-incubated for 24 hrs before H2O2 stimulation for 2 hrs by DCF dye based fluorescence microscopy; assay type: functional, cell-based; settings: Homo sapiens
[11] = tested on: HUVEC; test: Cytoprotective activity in H2O2-treated HUVEC assessed as reduction in H2O2-induced cell death at 0.5 to 50 uM pre-incubated for 24 hrs before H2O2 stimulation for 2 hrs by MTT assay; assay type: functional, cell-based; settings: Homo sapiens
[12] = tested on: HUVEC; test: Reduction in LDH release in H2O2-treated HUVEC at 0.5 to 50 uM pre-incubated for 24 hrs before H2O2 stimulation for 2 hrs; assay type: functional, cell-based; settings: Homo sapiens
[13] = tested on: HUVEC; test: Antioxidant activity in HUVEC assessed as suppression of ROS production by measuring fluorescent intensity index at 10 uM pre-incubated for 24 hrs before H2O2 stimulation for 2 hrs by DCF dye based fluorimetric assay; assay type: functional, Homo sapiens
[14] = tested on: HUVEC; test: Cytoprotective activity in H2O2-treated HUVEC assessed as cell survival at 0.5 uM pre-incubated for 24 hrs before H2O2 stimulation for 2 hrs by MTT assay (reference value: 66.91%); assay type: functional; settings: Homo sapiens, read-out: Survival

## VITAMIN E
[1]
  Flu intensity: 1.23

## C=C[C@]1(C)CC[C@@H](C(=C)C)C[C@H]1C(=C)COC(=O)CCC(=O)O
[2]
  Flu intensity: 1.468

## C=C[C@]1(C)CC[C@@H](C(=C)COC(=O)c2ccc(C)cc2)C[C@H]1C(=C)C
[2]
  Flu intensity: 1.411

## C=C[C@]1(C)CC[C@@H](C(=C)COC(=O)c2ccncc2)C[C@H]1C(=C)C
[2]
  Flu intensity: 1.447

## C=C[C@]1(C)CC[C@@H](C(=C)C)C[C@H]1C(=C)COC(=O)c1ccc([N+](=O)[O-])cc1
[2]
  Flu intensity: 1.393

## C=C[C@]1(C)CC[C@@H](C(=C)CO)C[C@H]1C(=C)C
[2]
  Flu intensity: 1.291

## C=C[C@]1(C)CC[C@@H](C(=C)C)C[C@H]1C(=C)COC(=O)c1cccc(F)c1
[2]
  Flu intensity: 1.39

## C=C[C@]1(C)CC[C@@H](C(=C)COC(C)=O)C[C@H]1C(=C)C
[2]
  Flu intensity: 1.391

## C=C[C@]1(C)CC[C@@H](C(=C)C)C[C@H]1C(=C)COC(=O)c1ccccc1C(=O)O
[2]
  Flu intensity: 1.415

## C=C[C@]1(C)CC[C@@H](C(=C)C)C[C@H]1C(=C)COC(=O)CCC(=O)OCC(=C)[C@@H]1C[C@H](C(=C)C)CC[C@@]1(C)C(=C)C
[2]
  Flu intensity: 1.123

## C=C[C@]1(C)CC[C@@H](C(=C)C)C[C@H]1C(=C)COC(=O)c1ccc(F)cc1
[2]
  Flu intensity: 1.306

## C=C[C@]1(C)CC[C@@H](C(=C)COC(=O)c2ccc(F)cc2)C[C@H]1C(=C)C
[2]
  Flu intensity: 1.417

## C=C[C@]1(C)CC[C@@H](C(=C)COC(=O)c2ccccc2C(=O)OCC(=C)[C@@H]2CC[C@@](C)(C=C)[C@H](C(=C)C)C2)C[C@H]1C(=C)C
[3]
  viability at 24 h, up to 50 µM: > 92%
[4]
  Activity: <= 50%
[5]
  inhibition: Dose-dependent effect
[6]
  viability at 50 µM: 97.9%
[7]
  inhibition: Dose-dependent effect
[8]
  Activity: Dose-dependent effect
[9]
  Activity: Dose-dependent effect
[2]
  Flu intensity: 1.114
[10]
  inhibition: Dose-dependent effect
[11]
  Activity: Dose-dependent effect
[12]
  inhibition: Dose-dependent effect

## C=C[C@]1(C)CC[C@@H](C(=C)COC(=O)CCC(=O)O)C[C@H]1C(=C)C
[2]
  Flu intensity: 1.403

## C=C[C@]1(C)CC[C@@H](C(=C)C)C[C@H]1C(=C)COC(=O)CCC
[2]
  Flu intensity: 1.338

## C=C[C@]1(C)CC[C@@H](C(=C)C)C[C@H]1C(=C)COC(=O)c1ccncc1
[2]
  Flu intensity: 1.411

## C=C[C@]1(C)CC[C@@H](C(=C)COC(=O)c2ccccc2C(=O)O)C[C@H]1C(=C)C
[2]
  Flu intensity: 1.416

## C=C[C@]1(C)CC[C@@H](C(=C)COC(=O)c2ccc(Cl)cc2)C[C@H]1C(=C)C
[2]
  Flu intensity: 1.324

## C=C[C@]1(C)CC[C@@H](C(=C)COC(=O)c2ccc([N+](=O)[O-])cc2)C[C@H]1C(=C)C
[2]
  Flu intensity: 1.304

## C=C[C@]1(C)CC[C@@H](C(=C)COC(=O)c2cccnc2)C[C@H]1C(=C)C
[2]
  Flu intensity: 1.524

## C=C[C@]1(C)CC[C@@H](C(=C)COC(=O)CCC)C[C@H]1C(=C)C
[2]
  Flu intensity: 1.365

## C=C[C@]1(C)CC[C@@H](C(=C)C)C[C@H]1C(=C)C
[13]
  Flu intensity: 1.23
[2]
  Flu intensity: 1.281

## C=C[C@]1(C)CC[C@@H](C(=C)C)C[C@H]1C(=C)CO
[2]
  Flu intensity: 1.37

## C=C[C@]1(C)CC[C@@H](C(=C)COC(=O)c2ccccc2O)C[C@H]1C(=C)C
[2]
  Flu intensity: 1.286

## C=C[C@]1(C)CC[C@@H](C(=C)COC(=O)CCC(=O)OCC(=C)[C@@H]2CC[C@@](C)(C=C)[C@H](C(=C)C)C2)C[C@H]1C(=C)C
[3]
  viability at 24 h, up to 50 µM: > 92%
[4]
  Activity: <= 50%
[5]
  inhibition: Dose-dependent effect
[14]
  viability at 0.5 µM: 81.2%
[6]
  viability at 50 µM: 100%
[7]
  inhibition: Dose-dependent effect
[8]
  Activity: Dose-dependent effect
[9]
  Activity: Dose-dependent effect
[2]
  Flu intensity: 1.092
[10]
  inhibition: Dose-dependent effect
[11]
  Activity: Dose-dependent effect
[12]
  inhibition: Dose-dependent effect

## C=C[C@]1(C)CC[C@@H](C(=C)C)C[C@H]1C(=C)COC(=O)c1ccccc1O
[2]
  Flu intensity: 1.376

## C=C[C@]1(C)CC[C@@H](C(=C)C)C[C@H]1C(=C)COC(=O)c1ccccc1
[2]
  Flu intensity: 1.445

## C=C[C@]1(C)CC[C@@H](C(=C)C)C[C@H]1C(=C)COC(=O)c1cccnc1
[2]
  Flu intensity: 1.397

## C=C[C@]1(C)CC[C@@H](C(=C)C)C[C@H]1C(=C)COC(=O)c1ccc(Cl)cc1
[2]
  Flu intensity: 1.458

## C=C[C@]1(C)CC[C@@H](C(=C)COC(=O)c2ccccc2Cl)C[C@H]1C(=C)C
[2]
  Flu intensity: 1.388

## C=C[C@]1(C)CC[C@@H](C(=C)COC(=O)CC)C[C@H]1C(=C)C
[2]
  Flu intensity: 1.322

## C=C[C@]1(C)CC[C@@H](C(=C)C)C[C@H]1C(=C)COC(=O)c1ccccc1C(=O)OCC(=C)[C@@H]1C[C@H](C(=C)C)CC[C@@]1(C)C(=C)C
[2]
  Flu intensity: 1.168

## C=C[C@]1(C)CC[C@@H](C(=C)COC(=O)c2ccco2)C[C@H]1C(=C)C
[2]
  Flu intensity: 1.488

## C=C[C@]1(C)CC[C@@H](C(=C)C)C[C@H]1C(=C)COC(=O)c1ccc(OC)cc1
[2]
  Flu intensity: 1.387

## C=C[C@]1(C)CC[C@@H](C(=C)COC(=O)c2cccc(F)c2)C[C@H]1C(=C)C
[2]
  Flu intensity: 1.39

## C=C[C@]1(C)CC[C@@H](C(=C)C)C[C@H]1C(=C)COC(=O)c1ccco1
[2]
  Flu intensity: 1.39

## C=C[C@]1(C)CC[C@@H](C(=C)C)C[C@H]1C(=C)COC(=O)c1ccc(C)cc1
[2]
  Flu intensity: 1.322

## C=C[C@]1(C)CC[C@@H](C(=C)C)C[C@H]1C(=C)COC(=O)CC
[2]
  Flu intensity: 1.383

## C=C[C@]1(C)CC[C@@H](C(=C)C)C[C@H]1C(=C)COC(C)=O
[2]
  Flu intensity: 1.322

## C=C[C@]1(C)CC[C@@H](C(=C)C)C[C@H]1C(=C)COC(=O)c1ccccc1Cl
[2]
  Flu intensity: 1.443

## C=C[C@]1(C)CC[C@@H](C(=C)COC(=O)c2ccc(OC)cc2)C[C@H]1C(=C)C
[2]
  Flu intensity: 1.429

## C=C[C@]1(C)CC[C@@H](C(=C)COC(=O)c2ccccc2)C[C@H]1C(=C)C
[2]
  Flu intensity: 1.355
